Experiment [1] relates to CT26 tumor cells. The experiment in a line: Anti-tumor vaccination: treated dying CT26 cells injected s.c., challenge with live tumor cells in opposite flank. The note with it: CT26 cells treated in vitro with agent alone, immunocompetent BALB/c mice. Type of experiment: in vivo, BALB/c mice.
Experiment [2] relates to CRT. Kind of experiment: Biotinylation of cell surface proteins, 2D gel electrophoresis and mass spectrometry: CRT. Type of experiment: cell-based, mouse. The note with it: 4 h treatment, vs untreated cells. Here is the method:
Biotinylation and recovery of cell surface proteins were performed with a method adopted from Gottardi et al. (Gottardi, C. J. et al., “Biotinylation and assessment of membrane polarity: caveats and methodological concerns,” Am J Physiol 268, F285-295 (1995)) and Hanwell et al. (Hanwell, D. et al., “Trafficking and cell surface stability of the epithelial Na+ channel expressed in epithelial Madin-Darby canine kidney cells,” J Biol Chem 277, 9772-9779 (2002)). Briefly, 20×10^6 CT26 cells grown on 75 cm^2 flask were placed on ice and washed three times with ice-cold PBS-Ca^2+—Mg^2+ (PBS with 0.1 mM CaCl2 and 1 mM MgCl2). Membrane proteins were then biotinylated by a 30-minute incubation at 4° C. with NHS-SS-biotin 1.25 mg/ml freshly diluted into biotinylation buffer (10 mM triethanolamine, 2 mM CaCl2, 150 mM NaCl, pH 7.5) with gentle agitation. CT26 cells were rinsed with PBS-Ca^2+—Mg^2++glycine (100 mM) and washed in this buffer for 20 minutes at 4° C. to quench unreacted biotin. The cells were then rinsed twice with PBS-Ca^2+—Mg^2+, scraped in cold PBS, and pelleted at 2,000 rpm at 4° C. The pellets were solubilized for 45 min in […] of lysis buffer (1% Triton X-100, 150 mM NaCl, 5 mM EDTA, 50 mM Tris, pH 7.5) containing protease inhibitors. […]

The test system of experiment [3] is ERP57. The experiment in a line: Biotinylation of cell surface proteins, 2D gel electrophoresis and mass spectrometry: ERP57. It counts as cell-based, mouse. The note with it: 4 h treatment, vs untreated cells. Here is the method:
Biotinylation and recovery of cell surface proteins were performed with a method adopted from Gottardi et al. (Gottardi, C. J. et al., “Biotinylation and assessment of membrane polarity: caveats and methodological concerns,” Am J Physiol 268, F285-295 (1995)) and Hanwell et al. (Hanwell, D. et al., “Trafficking and cell surface stability of the epithelial Na+ channel expressed in epithelial Madin-Darby canine kidney cells,” J Biol Chem 277, 9772-9779 (2002)). Briefly, 20×10^6 CT26 cells grown on 75 cm^2 flask were placed on ice and washed three times with ice-cold PBS-Ca^2+—Mg^2+ (PBS with 0.1 mM CaCl2 and 1 mM MgCl2). Membrane proteins were then biotinylated by a 30-minute incubation at 4° C. with NHS-SS-biotin 1.25 mg/ml freshly diluted into biotinylation buffer (10 mM triethanolamine, 2 mM CaCl2, 150 mM NaCl, pH 7.5) with gentle agitation. CT26 cells were rinsed with PBS-Ca^2+—Mg^2++glycine (100 mM) and washed in this buffer for 20 minutes at 4° C. to quench unreacted biotin. The cells were then rinsed twice with PBS-Ca^2+—Mg^2+, scraped in cold PBS, and pelleted at 2,000 rpm at 4° C. The pellets were solubilized for 45 min in […] of lysis buffer (1% Triton X-100, 150 mM NaCl, 5 mM EDTA, 50 mM Tris, pH 7.5) containing protease inhibitors. The lysates were clarified by centrifugation at 14,000×g for 10 min at 4° C., and the supernatants were incubated overnight with packed streptavidin-agarose beads to recover biotinylated proteins. The beads were then pelleted by centrifugation, and aliquots of supernatants were taken to represent the unbound, intracellular pool of proteins. Biotinylated proteins were eluted from the beads by heating to 100° C. for 5 minutes in SDS-PAGE sample buffer before loading onto a 10% SDS-PAGE gel as described above. To ensure the absence of leakage of biotin into the cells, the absence of the intracellular protein actin and GAPDH in biotinylated extracts was systematically verified.
Purified proteins were precipitated using the Ettan 2-D clean up kit were subsequently resuspended in urea buffer (7M urea, 2M thiourea, 2% Chaps, 1% Sulfobetaine SB3-10, 1% Amidosulfobetaine ASB14, 50 mM DTT). For the first dimension of protein separation, isoelectric focusing (IEF) was performed using 18-cm immobilized nonlinear pH gradient strips (pH 3 to 10; GE Healthcare) on a electrophoresis unit. […]

In experiment [4] the test system is CT26 cells. The experiment in a line: Phagocytosis assay: uptake of treated tumor cells by dendritic cells. Type of experiment: cell-based, mouse. Conditions: before apoptotic changes. How it is done: BM cells were flushed from the tibias and femurs of BALB/c mice with culture medium composed of RPMA 1640 medium supplemented with 10% heat-inactivated FBS, sodium pyruvate, […] 2-ME. 10 mM HEPES (pH 7.4), and penicillin/streptomycin. After one centrifugation, BM cells were resuspended in Tris-ammonium chloride for 2 min to lyse RBC. After one more centrifugation, BM cells (1×10^6 cells/ml) were cultured in medium supplemented with 100 ng/ml recombinant mouse FLT3 ligand in 6-well plates. […] In 12-well plates, […] adherent CT26 cells were labeled with Celltracker Orange and then incubated with drugs. […] Alternatively CT26 cells were coated with 3 μg/10^6 cells of rCRT on ice for 30 minutes and washed twice prior to addition to dendritic cells. Cells were then harvested, washed three times with medium supplemented with FBS and cocultured with immature DC for 2 hours at a ratio of 1:1 and 1:5. At the end of the incubation, cells were harvested with Versene, pooled with non-adherent cells present in the supernatant, washed and stained with CD11c-FITC antibody. Phagocytosis was assessed by FACS analysis of double positive cells. Phagocytic indexes refer to the ratio between values obtained at […] of co-incubation between DC and tumor cells. Trypsinized CT26 cells were enucleated as described. Briefly, cells were treated in 2 ml of complete RPMI medium containing cytochalasin B (10 μg/ml; Sigma) and DNase I (80 U/ml; Sigma). Cell suspension was adjusted to a final concentration of 5×10^6/ml and incubated at 37° C. for 45 minutes before being layered onto a previously prepared discontinuous Ficoll density gradient (3 ml of 100%, in 1 ml of 90% and 3 ml of 55% Ficoll Paque layer containing 5 μg/ml cytochalasin B and 40 U/ml DNase I; gradients were prepared in ultracentrifuge tubes and pre-equilibrated at 37° C. in a CO2 incubator overnight). Gradients containing cell suspensions were centrifugated in a prewarmed SW41 Beckman rotor at 25 000 rpm for 20 minutes at 30° C. The cytoplasts-enriched fraction was collected from the interface between 90 and 100% Ficoll layers, washed in complete RPMI 1640 medium, and incubated at 37° C. The cells were incubated with mitoxantrone (MTX), calyculin (CA), salubrinal (Sal) and toutomycin (TA) for the period of time indicated in the experiment. […] Alternatively cythoplasts were cocultured with immature DC for 2 hours at a ratio of 1:1 and 1:5. At the end of the incubation, cells were harvested with versene, pooled with non-adherent cells present in the supernatant, washed and stained with CD11c-FITC antibody. Phagocytosis was assessed by FACS analysis of double positive cells.

Experiment [5] concerns CRT. The experiment in a line: Fluorescence detection of cell surface CRT (cytofluorometry). Conditions: intact cells.
Protocol: CT26 cells (on a glass slide or in 12-well plates) were first washed with FACS buffer (1×PBS, 5% fetus bovine serum, and 0.1% sodium azide) and then incubated with rabbit anti-mouse CRT antibody (1:100, Stressgen), or rabbit anti-mouse ERP57 antibody (abcam) in FACS buffer at 4° C. for 30 min. […] After washing three times with FACS buffer, surface CRT and ERP57 was detected by cytofluorometric analysis on a FACS Vantage. In some experiments, cells were fixed with 4% paraformaldehyde, counterstained with Hoechst (2 μM; Sigma), followed by fluorescence microscopic assessment.
Trypsinized CT26 cells were enucleated as described. Briefly, cells were treated in 2 ml of complete RPMI medium containing cytochalasin B (10 μg/ml; Sigma) and DNase I (80 U/ml; Sigma). […] Gradients containing cell suspensions were centrifugated in a prewarmed SW41 Beckman rotor at 25 000 rpm for 20 minutes at 30° C. […] Then the cell surface CRT was detected (see materials and methods) and the viability was determined by with propidium iodine staining (2 μg/ml, Sigma) for 5 min followed by cytofluorometric analysis.

With `COc1cccc2c1C(=O)c1c(O)c3c(c(O)c1C2=O)C[C@@](O)(C(=O)CO)C[C@@H]3O[C@H]1C[C@H](N)[C@H](O)[C@H](C)O1` [doxorubicin], the “immunogenicity of cell death (protection against tumor growth on rechallenge)” value in experiment [1] is reported as “elicited immunogenic cell death”. In addition, the “induction of surface CRT, factor” value in experiment [2] is reported as 6. For the same molecule, in experiment [3], the “induction of surface ERP57 spot 1, factor” value is reported as 4.1; the “induction of surface ERP57 spot 2, factor” value came to 3.4; the “induction of surface ERP57 spot 3, factor” value stood at 8; the “induction of surface ERP57 spot 4, factor” value is given as 8.1. The “time after treatment at which tumor cells are phagocytosed by DC” value in experiment [4] is “within a few hours after treatment”. Moreover, the “time after treatment at which CRT exposure is detectable” value in experiment [5] is 1 h.

The record behind these values is patent US20090004211A1, “METHOD FOR EFFECTING LOCALIZED, NON-SYSTEMIC AND SYSTEMIC, IMMUNOGENIC TREATMENT OF CANCER USING ERP57 TRANSLOCATION” (priority 2006, published 2009).
